# Experimental data reported in patent publication US9486465B2, “Attractant for bone marrow stem cells and method for attracting bone marrow stem cells” (PIAS CORPORATION, priority 2012, dated 2016).
# System: wound with full-thickness skin loss in genetically diabetic db/db mice
# Test: Cell attraction test in vivo of mice: skin regeneration test (wound healing test)
# Parameters: species or system mouse
# Details: 120 μg/mL or 40 μg/mL PBS solution, 20 μL per site dropwise onto wound surface, three times per week for four weeks, FIG. 4
# Excerpt: Cell Attraction Test In Vivo of Mice
# In order to evaluate the performance of the attractant for bone marrow stem cells to attract bone marrow stem cells in vivo of mice, living mice were subjected to experiments as follows. When a living mouse is wounded, bone marrow stem cells can accumulate around the wound portion through the bloodstream. Then, the bone marrow stem cells that have accumulated around the wound portion secrete cytokine, or the bone marrow stem cells that have accumulated around the wound portion differentiate into cells of the wound portion, thereby allowing the wound to be healed. Accordingly, it is expected that application of the attractant for bone marrow stem cells to the wound portion causes the bone marrow stem cells to be attracted to the wound portion, thereby accelerating the healing of the wound.
# Method of Skin Regeneration Test (Wound Healing Test) […]
# A picture of the back was captured three times per week, for four weeks, and the image was loaded into a PC. Thus, the wound area was measured using an image analysis software (product name: Image J). Thereafter, the wound area was measured once a week until about 60 days from the wound creation.
smiles,measurement,value
Oc1cc(O)c2c(c1)O[C@@]1(c3ccc(O)c(O)c3)Oc3cc(O)c4c(c3[C@@H]2[C@H]1O)O[C@H](c1ccc(O)c(O)c1)[C@H](O)[C@H]4c1c(O)cc(O)c2c1O[C@H](c1ccc(O)c(O)c1)[C@H](O)C2 [cinnamtannin B1],wound area measurement (healing of the wound),healing of the wound was accelerated
